Data: patent US8637550B2, “Heteroaryl diamide compounds useful as MMP-13 inhibitors” (Boehringer Ingelheim International GmbH, priority 2008, dated 2014)

Each molecule was assayed against MMP-13 (Homo sapiens, UniProt P45452) (assay: EnzoLyte 520 Generic MMP Assay Kit, 5-FAM/QXL520 FRET peptide substrate).
Format: biochemical
Source text: The EnzoLyte™ 520 Generic MMP Assay Kit (AnaSpec Inc.) can detect the activity of several MMPs including MMP-1, 2, 3, 7, 8, 9, 13, and 14. This kit uses a 5-FAM/QXL™520 fluorescence resonance energy transfer (FRET) peptide as an MMP substrate.

SMILES | IC50
CNC(=O)[C@@H](NC(=O)c1ccc(-c2cccc(CNC(=O)c3ccn(C(F)F)n3)c2)o1)C(C)C [1-Difluoromethyl-1H-pyrazole-3-carboxylic acid 3-[5-((S)-2-methyl-1-methylcarbamoyl-propylcarbamoyl)-furan-2-yl]-benzylamide] | 14 nM
CNC(=O)[C@@H](NC(=O)c1ccc(-c2cccc(CNC(=O)c3cc(C(F)(F)F)n(C)n3)c2)o1)C(C)C [1-Methyl-5-trifluoromethyl-1H-pyrazole-3-carboxylic acid 3-[5-((S)-2-methyl-1-methylcarbamoyl-propylcarbamoyl)-furan-2-yl]-benzylamide] | 39 nM
CNC(=O)[C@@H](NC(=O)c1ccc(-c2cccc(CNC(=O)C3CCCCN3C)c2)o1)C(C)C (stereo partly drawn) [1-Methyl-N-[3-(5-{[(1S)-2-methyl-1-(methylcarbamoyl)propyl]carbamoyl}-2-furyl)benzyl]piperidine-2-carboxamide] | 300 nM
CNC(=O)[C@@H](NC(=O)c1ccc(-c2cccc(CNC(=O)C3CCCN(C)C3)c2)o1)C(C)C (stereo partly drawn) [1-Methyl-N-[3-(5-{[(1S)-2-methyl-1-(methylcarbamoyl)propyl]carbamoyl}-2-furyl)benzyl]piperidine-3-carboxamide] | 215 nM
CNC(=O)[C@@H](NC(=O)c1ccc(-c2cccc(CNC(=O)[C@@H]3CCCN3C)c2)o1)C(C)C [1-methyl-N-[3-(5-{[(1S)-2-methyl-1-(methylcarbamoyl)propyl]carbamoyl}-2-furyl)benzyl]-L-prolinamide] | 380 nM
CC[C@H](C)[C@H](NC(=O)c1csc(-c2ccc(Cl)cc2)n1)C(=O)NC [2-(4-Chloro-phenyl)-thiazole-4-carboxylic acid ((1S,2S)-2-methyl-1-methylcarbamoyl-butyl)-amide] | 380 nM
CNC(=O)[C@@H](NC(=O)c1csc(-c2ccc(Cl)cc2)n1)C1CCCCC1 [2-(4-Chlorophenyl)-N-[(1S)-1-cyclohexyl-2-(methylamino)-2-oxoethyl]-1,3-thiazole-4-carboxamide] | 470 nM
CNC(=O)[C@@H](NC(=O)c1ccc(-c2cccc(CNC(=O)c3ccnc(Cl)n3)c2)o1)C(C)C [2-Chloro-N-[3-(5-{[(1S)-2-methyl-1-(methylcarbamoyl)propyl]carbamoyl}-2-furyl)benzyl]pyrimidine-4-carboxamide] | 9 nM
CNC(=O)[C@@H](NC(=O)c1ccc(-c2cccc(CNC(=O)OCC(C)C)c2)o1)C1CCCCC1 [2-Methylpropyl [3-(5-{[(1S)-1-cyclohexyl-2-(methylamino)-2-oxoethyl]carbamoyl}furan-2-yl)benzyl]carbamate] | 240 nM
CNC(=O)[C@@H](NC(=O)c1ccc(-c2cccc(CNC(=O)c3cc(C)no3)c2)o1)C(C)C [3-Methyl-isoxazole-5-carboxylic acid 3-[5-((S)-2-methyl-1-methylcarbamoyl-propylcarbamoyl)-furan-2-yl]-benzylamide] | 280 nM
CNC(=O)[C@@H](NC(=O)c1ccc(-c2cccc(CNC(=O)c3nc(C(F)(F)F)cs3)c2)o1)C(C)C [4-Trifluoromethyl-thiazole-2-carboxylic acid 3-[5-((S)-2-methyl-1-methylcarbamoyl-propylcarbamoyl)-furan-2-yl]-benzylamide] | 6 nM
CNC(=O)[C@@H](NC(=O)c1ccc(-c2ccc(-c3ccnc(C)c3)cn2)o1)C(C)C [5-(2′-Methyl-[3,4′]bipyridinyl-6-yl)-furan-2-carboxylic acid ((S)-2-methyl-1-methylcarbamoyl-propyl)-amide] | 110 nM
CNC(=O)[C@@H](NC(=O)c1ccc(-c2cccc(CNC(=O)NC(C)(C)C)c2)o1)C1CCCCC1 [5-(3-{[(tert-Butylcarbamoyl)amino]methyl}phenyl)-N-[(1S)-1-cyclohexyl-2-(methylamino)-2-oxoethyl]furan-2-carboxamide] | 105 nM
CC[C@H](C)[C@H](NC(=O)c1ccc(-c2ccc(Cl)cc2)o1)C(=O)NC [5-(4-Chloro-phenyl)-furan-2-carboxylic acid ((1S,2S)-2-methyl-1-methylcarbamoyl-butyl)-amide] | 300 nM
CNC(=O)[C@@H](NC(=O)c1ccc(-c2ccc(Cl)cc2)o1)C1CCNCC1 [5-(4-Chlorophenyl)-N-[(1S)-2-(methylamino)-2-oxo-1-(piperidin-4-yl)ethyl]furan-2-carboxamide] | 430 nM
CNC(=O)[C@@H](NC(=O)c1ccc(-c2ccc(-c3ccc(C(F)(F)F)cc3)cc2)o1)C1CCCCC1 [5-(4′-Trifluoromethyl-biphenyl-4-yl)-furan-2-carboxylic acid ((S)-cyclohexyl-methylcarbamoyl-methyl)-amide] | 373 nM
CNC(=O)[C@@H](NC(=O)c1ccc(-c2ccc(OCc3ccccc3)cn2)o1)C(C)(C)O [5-(5-Benzyloxy-pyridin-2-yl)-furan-2-carboxylic acid ((S)-2-hydroxy-2-methyl-1-methylcarbamoyl-propyl)-amide] | 18 nM
CNC(=O)[C@@H](NC(=O)c1ccc(-c2ccc(OCc3ccccc3)cn2)o1)C(C)C [5-(5-Benzyloxy-pyridin-2-yl)-furan-2-carboxylic acid ((S)-2-methyl-1-methylcarbamoyl-propyl)-amide] | 18 nM
CNC(=O)[C@@H](NC(=O)c1ccc(-c2ccc(Cl)cn2)o1)C1CCCCC1 [5-(5-Chloropyridin-2-yl)-N-[(1S)-1-cyclohexyl-2-(methylamino)-2-oxoethyl]furan-2-carboxamide] | 245 nM
CNC(=O)[C@@H](NC(=O)c1ccc(-c2ccc(-c3ccccc3)cn2)o1)C(C)C [5-(5-Phenyl-pyridin-2-yl)-furan-2-carboxylic acid ((S)-2-methyl-1-methylcarbamoyl-propyl)-amide] | 79 nM
CNC(=O)[C@@H](NC(=O)c1ccc(-c2cccc(CNC(=O)c3cc(Br)n(C)n3)c2)o1)C(C)C [5-Bromo-1-methyl-1H-pyrazole-3-carboxylic acid 3-[5-((S)-2-methyl-1-methylcarbamoyl-propylcarbamoyl)-furan-2-yl]-benzylamide] | 13 nM
CNC(=O)[C@@H](NC(=O)c1ccc(-c2ccc(NC(=O)c3cn4c(C#N)cccc4n3)cc2)o1)C1CCCCC1 [5-Cyano-N-[4-(5-{[(1S)-1-cyclohexyl-2-(methylamino)-2-oxoethyl]carbamoyl}furan-2-yl)phenyl]imidazo[1,2-a]pyridine-2-carboxamide] | 103 nM
CNC(=O)[C@@H](NC(=O)c1ccc(-c2cccc(CNC(=O)c3cc(C(F)(F)F)n[nH]3)c2)o1)C(C)C [5-Trifluoromethyl-2H-pyrazole-3-carboxylic acid 3-[5-((S)-2-methyl-1-methylcarbamoyl-propylcarbamoyl)-furan-2-yl]-benzylamide] | 160 nM
CNC(=O)[C@@H](NC(=O)c1ccc(-c2ccc(-c3cccnc3)cn2)o1)C(C)C [5-[3,3′]Bipyridinyl-6-yl-furan-2-carboxylic acid ((S)-2-methyl-1-methylcarbamoyl-propyl)-amide] | 140 nM
CNC(=O)[C@@H](NC(=O)c1ccc(-c2ccc(-c3ccncc3)cn2)o1)C(C)C [5-[3,4′]Bipyridinyl-6-yl-furan-2-carboxylic acid ((S)-2-methyl-1-methylcarbamoyl-propyl)-amide] | 62 nM

Continued, values first:

IC50 | SMILES
395 nM | CNC(=O)[C@@H](NC(=O)c1ccc(-c2ccc(Br)cc2)o1)C1CCCCC1 [5-(4-Bromophenyl)-N-[(1S)-1-cyclohexyl-2-(methylamino)-2-oxoethyl]furan-2-carboxamide]
465 nM | CNC(=O)[C@@H](NC(=O)c1ccc(-c2ccc(Cl)cc2)o1)C1CCCC1 [5-(4-Chlorophenyl)-N-[(1S)-1-cyclopentyl-2-(methylamino)-2-oxoethyl]furan-2-carboxamide]
475 nM | CNC(=O)[C@@H](NC(=O)c1ccc(-c2ccc(Cl)cc2)o1)C1CCCCC1 [5-(4-chlorophenyl)-N-[(1S)-1-cyclohexyl-2-(methylamino)-2-oxoethyl]furan-2-carboxamide]
295 nM | CCNC(=O)[C@@H](NC(=O)c1ccc(-c2ccc(C#N)cc2)o1)C1CCCCC1 [5-(4-cyanophenyl)-N-[(1S)-1-cyclohexyl-2-(ethylamino)-2-oxoethyl]furan-2-carboxamide]
175 nM | CNC(=O)[C@@H](NC(=O)c1ccc(-c2ccc(C#N)cc2)o1)C1CCCCC1 [5-(4-cyanophenyl)-N-[(1S)-1-cyclohexyl-2-(methylamino)-2-oxoethyl]furan-2-carboxamide]
195 nM | C[C@@H](CO)NC(=O)[C@@H](NC(=O)c1ccc(-c2ccc(C#N)cc2)o1)C1CCCCC1 [5-(4-cyanophenyl)-N-[(1S)-1-cyclohexyl-2-{[(2S)-1-hydroxypropan-2-yl]amino}-2-oxoethyl]furan-2-carboxamide]
195 nM | COC[C@H](C)NC(=O)[C@@H](NC(=O)c1ccc(-c2ccc(C#N)cc2)o1)C1CCCCC1 [5-(4-cyanophenyl)-N-[(1S)-1-cyclohexyl-2-{[(2S)-1-methoxypropan-2-yl]amino}-2-oxoethyl]furan-2-carboxamide]
90 nM | CNC(=O)[C@@H](NC(=O)c1ccc(-c2ccc(C#N)cc2)o1)C1CCOCC1 [5-(4-cyanophenyl)-N-[(1S)-2-(methylamino)-2-oxo-1-(tetrahydro-2H-pyran-4-yl)ethyl]furan-2-carboxamide]
100 nM | N#Cc1ccc(-c2ccc(C(=O)N[C@H](C(=O)NCCO)C3CCCCC3)o2)cc1 [5-(4-cyanophenyl)-N-{(1S)-1-cyclohexyl-2-[(2-hydroxyethyl)amino]-2-oxoethyl}furan-2-carboxamide]
170 nM | CC(O)CNC(=O)[C@@H](NC(=O)c1ccc(-c2ccc(C#N)cc2)o1)C1CCCCC1 (stereo partly drawn) [5-(4-cyanophenyl)-N-{(1S)-1-cyclohexyl-2-[(2-hydroxypropyl)amino]-2-oxoethyl}furan-2-carboxamide]
74 nM | COCCNC(=O)[C@@H](NC(=O)c1ccc(-c2ccc(C#N)cc2)o1)C1CCCCC1 [5-(4-cyanophenyl)-N-{(1S)-1-cyclohexyl-2-[(2-methoxyethyl)amino]-2-oxoethyl}furan-2-carboxamide]
69 nM | CNC(=O)[C@@H](NC(=O)c1ccc(-c2ccc(C#N)cn2)o1)C1CCCCC1 [5-(5-Cyanopyridin-2-yl)-N-[(1S)-1-cyclohexyl-2-(methylamino)-2-oxoethyl]furan-2-carboxamide]
